Key:
Experiment in all cases: Post-emergence field trial in onion, visual weed control
Assay type in all cases: in vivo
[1] = test system: smallflower galinsoga (Galinsoga parviflora), GASPA; details: 15 days after application
Description: (§1) Multiple post-emergence field trials were conducted under field conditions in Colombia, Peru and Ecuador. Trial sites were located in commercially grown fields of onion (Allium spp) using standard herbicide small plot research methodology. Post-emergence trial plot size varied from 0.4 to 2 meter (m)×5 to 25 m (width×length) with 4 replicates per treatment. The onion crop was grown using normal cultural practices for fertilization, seeding, watering and maintenance to ensure good growth of the crop and the weeds.
(§2) All treatments in the post-emergence field trials were applied using a backpack compressed carbon dioxide (CO2) sprayer with flat fan nozzles calibrated to apply 400 liters per hectare (L/ha) spray volume at approximately 35 pounds per square inch (psi) nozzle pressure. Commercially available products of oxyfluorfen (GOAL® 480SC 480 grams active ingredient per liter (g ai/L) and haloxyfop-methyl (VERDICT R® 42 g ai/L) were mixed in water at appropriate formulated product rates to achieve the desired rates based on a unit area of application (hectare). Treatments were rated at 7 to 31 days after application (DAA) as compared to the untreated control plants. Visual weed control was scored on a scale of 0 to 100 percent where 0 corresponds to no injury and 100 corresponds to complete kill.
(§3) All treatment results, both for the single product and mixtures, are an average of 4 replicates. The trial sites had naturally occurring populations of weeds. The weed spectrum included, but was not limited to, AMBEL, BIDPI, BRSRA, GASPA, ELEIN, LOLTE, POANN, and SETVE.
(§4) Colby's equation was used to determine the herbicidal effects expected from the mixtures (Colby, S. R. Calculation of the synergistic and antagonistic response of herbicide combinations. Weeds 1967, 15, 20-22.).
(§5) The following equation was used to calculate the expected activity of mixtures containing two active ingredients, A and B:
(§6) A=observed efficacy of active ingredient A at the same concentration as used in the mixture.
(§7) B=observed efficacy of active ingredient B at the same concentration as used in the mixture.

[2] = test system: bristly foxtail (Setaria verticillata), SETVE; details: 7 days after application
Description: as §1, §2, §3, §4, §5, §6, §7

[3] = test system: common ragweed (Ambrosia artemisiifolia L.), AMBEL; details: 15 days after application
Description: as §1, §2, §3, §4, §5, §6, §7

[4] = test system: birdsrape mustard (Brassica rapa), BRSRA
Description: as §1, §2, §3, §4, §5, §6, §7

[5] = test system: goosegrass (Eleusine indica), ELEIN; details: 7 days after application
Description: as §1, §2, §3, §4, §5, §6, §7

[6] = test system: annual bluegrass (Poa annua L.), POAAN; details: 15 days after application
Description: as §1, §2, §3, §4, §5, §6, §7

[7] = test system: poison ryegrass (Lolium temulentum), LOLTE; details: 15 days after application
Description: as §1, §2, §3, §4, §5, §6, §7

[8] = test system: hairy beggarticks (Bidens pilosa), BIDPI
Description: as §1, §2, §3, §4, §5, §6, §7

[9] = oxyfluorfen 0, haloxyfop-methyl 42 g ai/ha, foliar
[10] = 16 days after application, oxyfluorfen 0, haloxyfop-methyl 42 g ai/ha, foliar
[11] = 31 days after application, oxyfluorfen 0, haloxyfop-methyl 42 g ai/ha, foliar
[12] = oxyfluorfen 120 g ai/ha, haloxyfop-methyl 0, foliar
[13] = oxyfluorfen 240 g ai/ha, haloxyfop-methyl 0, foliar
[14] = oxyfluorfen 360 g ai/ha, haloxyfop-methyl 0, foliar
[15] = 16 days after application, oxyfluorfen 120 g ai/ha, haloxyfop-methyl 0, foliar
[16] = 16 days after application, oxyfluorfen 240 g ai/ha, haloxyfop-methyl 0, foliar
[17] = 16 days after application, oxyfluorfen 360 g ai/ha, haloxyfop-methyl 0, foliar
[18] = 31 days after application, oxyfluorfen 120 g ai/ha, haloxyfop-methyl 0, foliar
[19] = 31 days after application, oxyfluorfen 240 g ai/ha, haloxyfop-methyl 0, foliar
[20] = 31 days after application, oxyfluorfen 360 g ai/ha, haloxyfop-methyl 0, foliar

COC(=O)C(C)Oc1ccc(Oc2ncc(C(F)(F)F)cc2Cl)cc1 (stereo not drawn) [Haloxyfop-methyl]
Visual Control (%) Obs [1, 9]: 6% | Visual Control (%) Obs [2, 9]: 77% | Visual Control (%) Obs [3, 9]: 6% | Visual Control (%) Obs [4, 10]: 0% | Visual Control (%) Obs [4, 11]: 0% | Visual Control (%) Obs [5, 9]: 6% | Visual Control (%) Obs [6, 9]: 5% | Visual Control (%) Obs [7, 9]: 4% | Visual Control (%) Obs [8, 10]: 0% | Visual Control (%) Obs [8, 11]: 0%

CCOc1cc(Oc2ccc(C(F)(F)F)cc2Cl)ccc1[N+](=O)[O-] [Oxyfluorfen, 2-chloro-1-(3-ethoxy-4-nitrophenoxy)-4-(trifluoromethyl)benzene]
Visual Control (%) Obs [1, 12]: 49% | Visual Control (%) Obs [1, 13]: 47% | Visual Control (%) Obs [1, 14]: 45% | Visual Control (%) Obs [2, 14]: 70% | Visual Control (%) Obs [3, 12]: 21% | Visual Control (%) Obs [3, 13]: 22% | Visual Control (%) Obs [3, 14]: 22% | Visual Control (%) Obs [4, 15]: 70% | Visual Control (%) Obs [4, 16]: 74% | Visual Control (%) Obs [4, 17]: 85% | Visual Control (%) Obs [4, 18]: 74% | Visual Control (%) Obs [4, 19]: 79% | Visual Control (%) Obs [4, 20]: 86% | Visual Control (%) Obs [5, 14]: 47% | Visual Control (%) Obs [6, 12]: 45% | Visual Control (%) Obs [6, 13]: 45% | Visual Control (%) Obs [6, 14]: 47% | Visual Control (%) Obs [7, 12]: 21% | Visual Control (%) Obs [7, 13]: 22% | Visual Control (%) Obs [7, 14]: 22% | Visual Control (%) Obs [8, 15]: 49% | Visual Control (%) Obs [8, 16]: 56% | Visual Control (%) Obs [8, 17]: 69% | Visual Control (%) Obs [8, 18]: 54% | Visual Control (%) Obs [8, 19]: 61% | Visual Control (%) Obs [8, 20]: 69%

Reference: patent US20180007899A1, “HERBICIDAL COMPOSITIONS COMPRISING OXYFLUORFEN AND HALOXYFOP” (Dow AgroSciences LLC, priority 2012, published 2018)
